From PubChem BioAssay AID2060508 (Molecular Pharmacology Branch, DTP, NCI, 2025)
Blank lines part the entries; values can stand above or below the molecule they belong to.

System: 454973-116-R2-J3-PDC spheroids, viability, % test/control
Experiment: Anticancer human tumor 454973-116-R2-J3-PDC patient-derived pancreatic carcinoma cell line growth inhibition [GQUAD]
Conditions: spheroids with HUVEC and MSC; for IC50: curve of first compound; for viability, T/C: stronger effect = lower value
Summary of the method: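 Tumor cells were grown as complex spheroids with HUVEC endothelial cells and mesenchymal stem cells as stroma. G-quadruplex stabilizers were combined with targeted agents over half-log dilutions from near the clinical Cmax, or from 10 microM.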

[1] = second compound 0.0316 µM, first compound 0.0316 µM
[2] = second compound 0.0316 µM, first compound 0.1 µM
[3] = second compound 0.0316 µM, first compound 0.316 µM
[4] = second compound 0.0316 µM, first compound 1 µM
[5] = second compound 0.0316 µM, first compound 3.16 µM
[6] = second compound 0.0316 µM, first compound 10 µM
[7] = second compound 0.1 µM, first compound 0.0316 µM
[8] = second compound 0.1 µM, first compound 0.1 µM
[9] = second compound 0.1 µM, first compound 0.316 µM
[10] = second compound 0.1 µM, first compound 1 µM
[11] = second compound 0.1 µM, first compound 3.16 µM
[12] = second compound 0.1 µM, first compound 10 µM
[13] = second compound 0.316 µM, first compound 0.0316 µM
[14] = second compound 0.316 µM, first compound 0.1 µM
[15] = second compound 0.316 µM, first compound 0.316 µM
[16] = second compound 0.316 µM, first compound 1 µM
[17] = second compound 0.316 µM, first compound 3.16 µM
[18] = second compound 0.316 µM, first compound 10 µM
[19] = second compound 1 µM, first compound 0.0316 µM
[20] = second compound 1 µM, first compound 0.1 µM
[21] = second compound 1 µM, first compound 0.316 µM
[22] = second compound 1 µM, first compound 1 µM
[23] = second compound 1 µM, first compound 3.16 µM
[24] = second compound 1 µM, first compound 10 µM
[25] = second compound 3.16 µM, first compound 0.0316 µM
[26] = second compound 3.16 µM, first compound 0.1 µM
[27] = second compound 3.16 µM, first compound 0.316 µM
[28] = second compound 3.16 µM, first compound 1 µM
[29] = second compound 3.16 µM, first compound 3.16 µM
[30] = second compound 3.16 µM, first compound 10 µM
[31] = second compound 10 µM, first compound 0.0316 µM
[32] = second compound 10 µM, first compound 0.1 µM
[33] = second compound 10 µM, first compound 0.316 µM
[34] = second compound 10 µM, first compound 1 µM
[35] = second compound 10 µM, first compound 3.16 µM
[36] = second compound 10 µM, first compound 10 µM
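Note: spheroids exposed to compounds for seven days.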
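Throughout, for viability, T/C: 100% = DMSO vehicle control viability.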

SMILES: C#Cc1c(F)ccc2cc(O)cc(-c3ncc4c(N5CC6CCC(C5)N6)nc(OCC56CCCN5CC(F)C6)nc4c3F)c12 (stereo unspecified) + Cc1[nH]c2ccc(F)cc2c1-c1nc2c3cccnc3c3ncccc3c2[nH]1
- IC50 (second compound 0.0316 µM): 55.4 nM
- IC50 (second compound 0.1 µM): 72.2 nM
- IC50 (second compound 0.316 µM): 56.2 nM
- IC50 (second compound 1 µM): 57 nM
- IC50 (second compound 3.16 µM): 34.6 nM
- IC50 (second compound 10 µM): < 31.6 nM
- viability, T/C [1]: 59.5%
- viability, T/C [2]: 40.2%
- viability, T/C [3]: 27.5%
- viability, T/C [4]: 25.1%
- viability, T/C [5]: 21.5%
- viability, T/C [6]: 15.5%
- viability, T/C [7]: 63.5%
- viability, T/C [8]: 43.4%
- viability, T/C [9]: 34.5%
- viability, T/C [10]: 24.4%
- viability, T/C [11]: 21.9%
- viability, T/C [12]: 17%
- viability, T/C [13]: 57.2%
- viability, T/C [14]: 45.2%
- viability, T/C [15]: 27.7%
- viability, T/C [16]: 23.9%
- viability, T/C [17]: 29.6%
- viability, T/C [18]: 17.5%
- viability, T/C [19]: 58.6%
- viability, T/C [20]: 41.8%
- viability, T/C [21]: 29.8%
- viability, T/C [22]: 22.9%
- viability, T/C [23]: 17.6%
- viability, T/C [24]: 15.4%
- viability, T/C [25]: 52.1%
- viability, T/C [26]: 35.5%
- viability, T/C [27]: 27.2%
- viability, T/C [28]: 21.1%
- viability, T/C [29]: 19.6%
- viability, T/C [30]: 12.8%
- viability, T/C [31]: 48.1%
- viability, T/C [32]: 36.9%
- viability, T/C [33]: 26.2%
- viability, T/C [34]: 17.6%
- viability, T/C [35]: 16.8%
- viability, T/C [36]: 12.3%

- IC50 (second compound 0.0316 µM): > 10000 nM
- IC50 (second compound 0.1 µM): > 10000 nM
- IC50 (second compound 0.316 µM): > 10000 nM
- IC50 (second compound 1 µM): > 10000 nM
- IC50 (second compound 3.16 µM): > 10000 nM
- IC50 (second compound 10 µM): < 31.6 nM
SMILES: COc1ncnc(C2CC2)c1-c1ncc2cnn(Cc3ccc(-c4nc(C(F)(F)F)cn4C(C)C)cc3)c2n1 + Cc1cnc(CNC(=O)c2c(=O)c3ccc(N4CCCN(C)CC4)nc3n3c2sc2ccccc23)cn1
- viability, T/C [1]: 96%
- viability, T/C [2]: 94%
- viability, T/C [3]: 87.8%
- viability, T/C [4]: 104%
- viability, T/C [5]: 88.9%
- viability, T/C [6]: 86.9%
- viability, T/C [7]: 82.1%
- viability, T/C [8]: 69.4%
- viability, T/C [9]: 74.7%
- viability, T/C [10]: 71.4%
- viability, T/C [11]: 69%
- viability, T/C [12]: 63.4%
- viability, T/C [13]: 65.4%
- viability, T/C [14]: 61.9%
- viability, T/C [15]: 59.5%
- viability, T/C [16]: 69.2%
- viability, T/C [17]: 60%
- viability, T/C [18]: 62%
- viability, T/C [19]: 55.3%
- viability, T/C [20]: 69.4%
- viability, T/C [21]: 57.4%
- viability, T/C [22]: 63.2%
- viability, T/C [23]: 61.4%
- viability, T/C [24]: 58.4%
- viability, T/C [25]: 61.7%
- viability, T/C [26]: 58.8%
- viability, T/C [27]: 61.7%
- viability, T/C [28]: 57.8%
- viability, T/C [29]: 67.8%
- viability, T/C [30]: 54%
- viability, T/C [31]: 0.22%
- viability, T/C [32]: 19.6%
- viability, T/C [33]: 50.4%
- viability, T/C [34]: 40.6%
- viability, T/C [35]: 0.38%
- viability, T/C [36]: 0.3%

SMILES: O=C(NO)c1cnc(N2CCN(S(=O)(=O)c3ccc4ccccc4c3)CC2)nc1 + Cc1[nH]c2ccc(F)cc2c1-c1nc2c3cccnc3c3ncccc3c2[nH]1
- IC50 (second compound 0.0316 µM): 221 nM
- IC50 (second compound 0.1 µM): 360 nM
- IC50 (second compound 0.316 µM): 384 nM
- IC50 (second compound 1 µM): 476 nM
- IC50 (second compound 3.16 µM): 464 nM
- IC50 (second compound 10 µM): 533 nM
- viability, T/C [1]: 108%
- viability, T/C [2]: 84.8%
- viability, T/C [3]: 35.3%
- viability, T/C [4]: 2.53%
- viability, T/C [5]: 0.14%
- viability, T/C [6]: 0.29%
- viability, T/C [7]: 108%
- viability, T/C [8]: 104%
- viability, T/C [9]: 55.7%
- viability, T/C [10]: 4.86%
- viability, T/C [11]: 0.14%
- viability, T/C [12]: 0.64%
- viability, T/C [13]: 121%
- viability, T/C [14]: 96.2%
- viability, T/C [15]: 62.1%
- viability, T/C [16]: 10%
- viability, T/C [17]: 0.1%
- viability, T/C [18]: 1.14%
- viability, T/C [19]: 89.6%
- viability, T/C [20]: 92.1%
- viability, T/C [21]: 73%
- viability, T/C [22]: 8.33%
- viability, T/C [23]: 0.1%
- viability, T/C [24]: 0.86%
- viability, T/C [25]: 105%
- viability, T/C [26]: 93.7%
- viability, T/C [27]: 66.9%
- viability, T/C [28]: 18.1%
- viability, T/C [29]: 0.16%
- viability, T/C [30]: 0.16%
- viability, T/C [31]: 93.6%
- viability, T/C [32]: 90.2%
- viability, T/C [33]: 76.9%
- viability, T/C [34]: 17.7%
- viability, T/C [35]: 0.22%
- viability, T/C [36]: 0.21%
